System: V. mimicus 04–14 isolate
Assay: Protective effects on grass carps challenged with V. mimicus
Assay type: in vivo, Vibrio mimicus
Settings: for Mortality rate / Survival rate: n = 10, 7 days; for No. of dead fish post challenge, 2d: n = 10, day 2; for No. of dead fish post challenge, 3d: n = 10, day 3; for No. of dead fish post challenge, 4d: n = 10, day 4; for No. of dead fish post challenge, 5d: n = 10, day 5; for No. of dead fish post challenge, 6d: n = 10, day 6; for No. of dead fish post challenge, 7d: n = 10, day 7; for No. of dead fish: n = 10, total over 7 days; for No. of dead fish post challenge, 1d: n = 10, day 1
Experimental: Healthy grass carps weighting 50–52 g were purchased from a commercial fish farm in Anhui province of China, and then were maintained in a flow-through water system at a temperature of 25 ± 1°C and fed commercial pellets on a daily basis. After 14 days when grass carps were confirmed to be healthy, the water temperature was increased to 28 ± 1°C slowly, and the experiment began.
The experimental grass carps were randomly divided into 9 groups (named A-I group, n = 10 in each group). Groups A-C were injected intraperitoneally with P1 at a dose of 10 mg/kg/d, 20 mg/kg/d and 30 mg/kg/d, respectively; Groups D-F were given the same dosages of P2, respectively; Group G was given with 30 mg/kg/d of unrelated control peptide. After 3 days of continuous peptides injection, each fish in groups A-G was challenged intraperitoneally with 200 μL PBS containing 6 × 10^6 cells of V.mimicus 04–14 isolate (equal to the minimal lethal dose determined by preliminary test), respectively. Group H (infection control group) was only inoculated with 04–14 isolate at the minimal lethal dose; Group I (negative control group) was only inoculated with 0.65% sterile saline. Survival of the fish was monitored every 12 h for 7 days post-challenge. At the end of the 7 day observation period, all surviving fish were euthanized in a solution of 200 mg/L of MS-222 followed by a blow to the head.
The survival experiment was performed in accordance with the practices reported in recent studies on antibacterial efficacy of peptides in vivo, protective efficacy of vaccine and bacterial virulence. Death was used as an endpoint in these studies (with no indication of use of humane euthanasia). In animal toxicity and efficacy assays of the adhesion antagonistic peptides, we used death as the endpoint as early, reliable and unbiased biomarkers that can be used as indicators of disease severity are lacking. There is difficulty in reliably differentiating fish that will die from those which will recover, despite showing clinical signs precluding use of humane euthanasia. In addition, interpretation of clinical signs can itself be subjective in the absence of quantifiable indicators of disease severity. For these reasons, the ethical committee of Anhui Agricultural University has assessed the possibility of deaths in the animal toxicity and efficacy assays and also allowed probably unavoidable animal deaths.

[1] = 10 mg/kg/d i.p. for 3 days before challenge
[2] = 10 mg/kg/d i.p. for 3 days before i.p. challenge with 6 × 10^6 cells
[3] = 20 mg/kg/d i.p. for 3 days before challenge
[4] = 30 mg/kg/d i.p. for 3 days before challenge

Sequence	Mortality rate [1] [%]	Survival rate [1] [%]	No. of dead fish post challenge, 2d [1]	No. of dead fish post challenge, 3d [1]	No. of dead fish post challenge, 4d [1]	No. of dead fish post challenge, 5d [1]	No. of dead fish post challenge, 6d [1]	No. of dead fish post challenge, 7d [1]	No. of dead fish [1]	No. of dead fish post challenge, 1d [2]	Mortality rate [3] [%]	Survival rate [3] [%]	No. of dead fish post challenge, 1d [3]	No. of dead fish post challenge, 2d [3]	No. of dead fish post challenge, 3d [3]	No. of dead fish post challenge, 4d [3]	No. of dead fish post challenge, 5d [3]	No. of dead fish post challenge, 6d [3]	No. of dead fish post challenge, 7d [3]	No. of dead fish [3]	other results
SCTSPHCFMWLP [P2, adhesion antagonistic peptide]	80	20	4	3	1	0	0	0	8	0	60	40	0	2	3	1	0	0	0	6	Mortality rate [4]: 40%; Survival rate [4]: 60%; No. of dead fish post challenge, 1d [4]: 0; No. of dead fish post challenge, 2d [4]: 2; No. of dead fish post challenge, 3d [4]: 2; No. of dead fish post challenge, 4d [4]: 0; No. of dead fish post challenge, 5d [4]: 0; No. of dead fish post challenge, 6d [4]: 0; No. of dead fish post challenge, 7d [4]: 0; No. of dead fish [4]: 4
TWTCSDVICTAR [P1, adhesion antagonistic peptide]	90	10	5	2	2	0	0	0	9	0	80	20	0	4	2	2	0	0	0	8	Mortality rate [4]: 60%; Survival rate [4]: 40%; No. of dead fish post challenge, 1d [4]: 0; No. of dead fish post challenge, 2d [4]: 2; No. of dead fish post challenge, 3d [4]: 3; No. of dead fish post challenge, 4d [4]: 1; No. of dead fish post challenge, 5d [4]: 0; No. of dead fish post challenge, 6d [4]: 0; No. of dead fish post challenge, 7d [4]: 0; No. of dead fish [4]: 6

From PMC5104426, “Screening a Phage Display Library for Two Novel OmpU-Binding Peptides with Adhesion Antagonistic Activity against Vibrio mimicus” (PLoS ONE, 2016)
